Measurements: publication PMC9394284, “Discovery of Novel Dual Adenosine A2A and A1 Receptor Antagonists with 1H-Pyrazolo[3,4-d]pyrimidin-6-amine Core Scaffold as Anti-Parkinson’s Disease Agents” (Pharmaceuticals, 2022)
Like-named read-outs stand apart in the source and are kept apart here.

Columns and labels:
A3 receptors = target: T1, A3 receptors (Homo sapiens, UniProt P0DMS8); experiment: radioligand binding to human A3 receptors, CHO-K1 membranes, [125I]AB-MECA
T1 construct: purchased PerkinElmer ES-012-M
T1 sequence (P0DMS8 1-318): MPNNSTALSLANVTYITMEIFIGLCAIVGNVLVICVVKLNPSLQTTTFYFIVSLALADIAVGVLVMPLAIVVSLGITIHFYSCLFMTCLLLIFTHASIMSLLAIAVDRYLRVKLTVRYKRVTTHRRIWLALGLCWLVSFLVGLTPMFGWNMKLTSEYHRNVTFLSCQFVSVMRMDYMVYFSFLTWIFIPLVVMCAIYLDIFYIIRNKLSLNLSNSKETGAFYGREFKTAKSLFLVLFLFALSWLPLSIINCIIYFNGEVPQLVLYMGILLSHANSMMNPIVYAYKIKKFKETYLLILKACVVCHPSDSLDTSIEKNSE
Protocol: The radioligand-binding assays for adenosine receptors were performed at Eurofins Discovery Services (Panlabs, Taiwan). Briefly, stock solutions of the compounds were prepared in DMSO and further diluted with the incubation buffer to the desired concentration. Final DMSO concentrations in the assay were 1.0%. For adenosine A1 screening, a 10 μg aliquots of membrane preparations from human recombinant CHO-K1 cells stably expressing A1 receptors (CHO-K1-hA1AR clone3, EPDST, R200510) were incubated with 1 nM [^3H]DPCPX in incubation buffer (20 mM HEPES, pH 7.4, 10 mM MgCl2, 100 mM NaCl 1.40 nM) for 90 min at 25 °C. Nonspecific binding was estimated in the presence of 100 μM R(-)-PIA. Membranes were filtered and washed 3 times and the filters were counted to determine specifically bound [^3H]DPCPX. Chemical compounds were screened at 10 μM. For A2A screening, membrane preparations from human recombinant HEK-293 cells stably expressing A2A receptors (PerkinElmer, RBHA2AM) were incubated with 0.05 μM [^3H]CGS-21680 in incubation buffer (50 mM Tris-HCl, pH 7.4, 10 mM MgCl2, 1 mM EDTA, 2 U/mL Adenosine Deaminase) for 90 min at 25 °C. Nonspecific binding was estimated in the presence of 50.0 μM NECA. Membranes were filtered and washed 3 times and the filters were counted to determine [^3H]CGS-21680 specifically bound. […] Membranes were filtered and washed 3 times and the filters were counted to determine [^3H]MRS1754 specifically bound. […]
IC50 values were determined by a nonlinear, least-squares regression analysis using MathIQ^TM (ID Business Solutions Ltd., Guildford, UK). Where inhibition constants (Ki) were presented, the Ki values were calculated using Cheng and Prusoff equation [18] using the observed IC50 of the compound, the concentration of radioligand employed in the assay, and the historical values for the KD of the ligand (obtained experimentally at Eurofins Panlabs, Inc.). The Hill coefficient (nH), which defines the slope of the competitive binding curve, was calculated using MathIQ^TM.

[1] = pharmacokinetics and bioavailability in mouse plasma; type: in vivo, Crl:CD-1 mice
Protocol: Male Crl:CD-1 mice of 9~10 weeks of age were purchased from Charles River Laboratories, USA and maintained at standard food and water ad libitum in temperature-controlled room with 12 h on-off light cycle before the experiment. All procedures described were reviewed and approved by the Institutional Animal Care and Use Committee (IACUC) at Frontage Laboratories Inc. For PO dosing, mice were given 11o dissolved in DMSO: PEG400 (1:3, v:v) via gavage. For IV dosing, 11o solubilized in DMSO: PEG400: saline (1:3:6, v:v) were injected into tail veins at dose volume of 1 mL/kg. For IN dosing, 11o solubilized in DMSO and 25 μL of the appropriate dosing solution was placed near the nares to allow animal to inhale the dose. Three mice were sampled from each group for each blood and brain collection time point. Time points are 0.5, 1, 2, 4, 8, 24 h for PO and IN dosing and 0.083, 1, 2, 4, 8 and 24 h for IV dosing. Mice were euthanized by terminal retro-orbital blood collection under isoflurane anesthesia, followed by opening of the thoracic cavity per facility SOPs. A target volume of 1 mL was collected into tubes containing K3EDTA anti-coagulant, inverted several times and held on wet ice until centrifuged under refrigeration (set at 5 °C for 10 min at 2000× g). Resulting plasma were stored in a freezer set to maintain −70 °C until analyzed for 11o concentration. Brain was removed from each animal and weighed following termination, snap frozen and stored until later use. Plasma and brain PK analysis was conducted using WinNolin Version 6.2.1 (Pharsight, Mountain View, CA, USA), operating as a validated software system. Noncompartmental analysis was conducted using the extravascular administration model for oral dosing and the IV bolus model for IV dosing. The peak plasma and brain concentration, time to achieve peak plasma concentration, half-life, and area under the plasma concentration-time curve (Cmax, Tmax, T1/2 and AUC) were calculated from mean plasma concentrations for each sampling time/dose group for 11o. Nominal blood collection times were used for calculation of PK parameters. Dose proportionality was assessed, and bioavailability was calculated for PO dosing.

[2] = average of duplicate experiments
[3] = male, Crl:CD-1, inhaled or intranasal, mouse plasma, 10 mg/kg IN
[4] = male, Crl:CD-1, mouse plasma, 1 mg/kg IV
[5] = male, Crl:CD-1, mouse plasma, 1 mg/kg PO
[6] = male, Crl:CD-1, mouse plasma, 3 mg/kg PO
[7] = male, Crl:CD-1, mouse plasma, 10 mg/kg PO

Cc1cc(Cn2ncc3c(-c4cccc(C#N)c4F)nc(N)nc32)ccc1N [11o, 3-(6-Amino-1-(4-amino-3-methylbenzyl)-1H-pyrazolo[3,4-d]pyrimidin-4-yl)-2-fluorobenzonitrile]
nH (Hill coefficient), A3 (A3 receptors): 0.44
IC50 (A3 receptors; [2]): 1.13 µM
Ki (A3 receptors; [2]): 1.05 µM
Tmax ([1]; male, Crl:CD-1, inhaled or intranasal, mouse plasma, 1 mg/kg IN): 0.5 h
Tmax ([1]; male, Crl:CD-1, inhaled or intranasal, mouse plasma, 3 mg/kg IN): 0.5 h
Tmax [1, 3]: 0.5 h
half-life [1, 3]: 7.4 h
AUC(0-t) ([1]; male, Crl:CD-1, mouse, plasma, inhaled or intranasal, 1 mg/kg, mouse plasma, 1 mg/kg IN): 74.9 ng·h/mL
Cmax ([1]; male, Crl:CD-1, mouse, plasma, inhaled or intranasal, 1 mg/kg, mouse plasma, 1 mg/kg IN, read-out: Cmax): 23.3 ng/mL
AUC(0-t) ([1]; male, Crl:CD-1, mouse, plasma, inhaled or intranasal, 3 mg/kg, mouse plasma, 3 mg/kg IN): 183 ng·h/mL
Cmax ([1]; male, Crl:CD-1, mouse, plasma, inhaled or intranasal, 3 mg/kg, mouse plasma, 3 mg/kg IN, read-out: Cmax): 53.9 ng/mL
AUC(0-t) ([1]; male, Crl:CD-1, mouse, plasma, inhaled or intranasal, 10 mg/kg, mouse plasma, 10 mg/kg IN): 444 ng·h/mL
Cmax ([1]; male, Crl:CD-1, mouse, plasma, inhaled or intranasal, 10 mg/kg, mouse plasma, 10 mg/kg IN, read-out: Cmax): 88.5 ng/mL
AUC(0-t) ([1]; male, Crl:CD-1, mouse, plasma, iv, 1 mg/kg, mouse plasma, 1 mg/kg IV): 332 ng·h/mL
Cmax ([1]; male, Crl:CD-1, mouse, plasma, iv, 1 mg/kg, mouse plasma, 1 mg/kg IV, read-out: Cmax): 459 ng/mL
AUC(0-t) ([1]; male, Crl:CD-1, mouse, plasma, po, 1 mg/kg, mouse plasma, 1 mg/kg PO): 176 ng·h/mL
Cmax ([1]; male, Crl:CD-1, mouse, plasma, po, 1 mg/kg, mouse plasma, 1 mg/kg PO, read-out: Cmax): 36.8 ng/mL
AUC(0-t) ([1]; male, Crl:CD-1, mouse, plasma, po, 3 mg/kg, mouse plasma, 3 mg/kg PO): 577 ng·h/mL
Cmax ([1]; male, Crl:CD-1, mouse, plasma, po, 3 mg/kg, mouse plasma, 3 mg/kg PO, read-out: Cmax): 81.4 ng/mL
AUC(0-t) ([1]; male, Crl:CD-1, mouse, plasma, po, 10 mg/kg, mouse plasma, 10 mg/kg PO): 2250 ng·h/mL
Cmax ([1]; male, Crl:CD-1, mouse, plasma, po, 10 mg/kg, mouse plasma, 10 mg/kg PO, read-out: Cmax): 367 ng/mL
bioavailability ([1]; male, Crl:CD-1, plasma, other: intranasal (IN), placed near the nares, mouse, IN, 1, 3 and 10 mg/kg, depending on the dose, read-out: Bioavailability after IN administration): 13.4 to 22.6%
Tmax [1, 4]: 0.083 h
half-life [1, 4]: 3.95 h
Tmax [1, 5]: 2 h
half-life [1, 5]: 4.38 h
Tmax [1, 6]: 2 h
half-life [1, 6]: 3.66 h
Tmax [1, 7]: 2 h
half-life [1, 7]: 5.69 h
BA ([1]; mouse plasma, 1 mg/kg IN, relative to AUClast of 1 mg/kg IV): 22.6%
BA ([1]; mouse plasma, 1 mg/kg IV (reference for the calculation)): 100%
BA ([1]; mouse plasma, 1 mg/kg PO, relative to AUClast of 1 mg/kg IV, 1 mg/kg): 53%
BA ([1]; mouse plasma, 3 mg/kg IN, relative to AUClast of 1 mg/kg IV): 18.4%
Cmax ([1]; mouse plasma, 3 mg/kg PO, 3 mg/kg): 81.3 ng/mL
BA ([1]; mouse plasma, 3 mg/kg PO, relative to AUClast of 1 mg/kg IV): 57.9%
BA ([1]; mouse plasma, 10 mg/kg IN, relative to AUClast of 1 mg/kg IV): 13.4%
AUClast ([1]; mouse plasma, 10 mg/kg PO, 10 mg/kg): 2249 ng·h/mL
BA ([1]; mouse plasma, 10 mg/kg PO, relative to AUClast of 1 mg/kg IV): 67.7%
